Laboratory results published in US20100075960A1 (priority 2006, published 2010).

Each compound was assayed on HCT116 (assay: Inhibition of cell proliferation, HCT116). Conditions: Homo sapiens, HCT-116; 72 h treatment; methylene blue or CellTiter-Glo.
Assay type: cell-based
Protocol: II. Inhibition of Cell Proliferation by PLK1 Inhibitors.
Exponentially growing cell lines of different tumor origins, cultured in appropriate media containing 10% fetal bovine serum at 37° C. in a 5% CO2 incubator were plated in 96 or 384-well plates. Twenty four hours post-plating, cells were treated with different concentrations of test compounds ranging from 20 μM to 0.04 nM. Several wells were left untreated as a control. Seventy two hours post-treatment, cell numbers were determined using different techniques; 100 μl per well of methylene blue (Sigma M9140) (0.5% in 50:50 Ethanol:water), or 10-100 μl per well of CellTiter-Glo (Promega #G7573), depending on well size. For methylene blue staining, stain was incubated at room temperature for 30 minutes before plates were rinsed and dye solubilized in 1% N-lauroyl sarcosine, sodium salt, (Sigma L5125, in PBS). Plates were read on a microplate reader, measuring the OD at 620 nm. For CellTiter-Glo, plates were incubated at room temperature for 15 minutes and the chemiluminescent signal was read on the Victor V or Envison 2100 reader.
Percent inhibition of cell growth was expressed as percent proliferation relative to 100% proliferation (control). Concentration of test compound that inhibited 50% of cell growth (IC50) was determined by 4 parameter fit of data using XLfit, (value of no cell control was substracted from all samples for background). The data are shown in Table 1 and Table 2 below and represent a compilation of several different experiments each performed using the general parameters outlined above, although minor variations may have been employed in some instances, in Table 1 and Table 2, +=IC50>1 μM; ++=IC50 0.5-1 μM: +++=IC50<0.5 μM.
`CC(Oc1cc(-n2cnc3cc(-c4cnn(C)c4)ccc32)sc1C(N)=O)c1cccc(OC2CCNCC2)c1` (racemic) [Example 73, (±)-5-[5-(1-Methyl-1H-pyrazol-4-yl)-1H-benzimidazol-1yl[-3-({1-[3-(4-piperidinyloxy)phenyl]ethyl}oxy)-2-thiophenecarboxamide] was tested, and the IC50 was > 1 µM.
With `CC(Oc1cc(-n2cnc3cc(-c4cnn(C)c4)ccc32)sc1C(N)=O)c1cccc(OC2CCN(C)CC2)c1` (racemic) [Example 74, (±)-3-[(1-{3-[(1-methyl-4-piperidinyl)oxy]phenyl}ethyl)oxy]-5-[5-(1-methyl-1H-pyrazol-4-yl)-1H-benzimidazol-1-yl]-2-thiophenecarboxamide] the IC50 was < 0.5 µM.
`CC(Oc1cc(-n2cnc3cc(-c4cnn(C)c4)ccc32)sc1C(N)=O)c1cccc(OC2CCNCC2)c1F` (racemic) [Example 75] was tested, and the IC50 was < 0.5 µM.
With `CC(Oc1cc(-n2cnc3cc(-c4cnn(C)c4)ccc32)sc1C(N)=O)c1cccc(OC2CCN(C)CC2)c1F` (racemic) [Example 76, (±)-3-[(1-{2-Fluoro-3-[(1-methyl-4-piperidinyl)oxy]phenyl}ethyl)oxy]-5-[5-(1-methyl-1H-pyrazol-4-yl)-1H-benzimidazol-1-yl]-2-thiophenecarboxamide] the IC50 was < 0.5 µM.
`CC(Oc1cc(-n2cnc3cc(-c4cnn(C)c4)ccc32)sc1C(N)=O)c1ccnc(OC2CCNCC2)n1` (racemic) [Example 77, (±)-5-[5-(1-Methyl-1H-pyrazol-4-yl)-1H-benzimidazol-1-yl]-3-({1-[2-(4-piperidinyloxy-4-pyrimidinyl]ethyl}oxy)-2-thiophenecarboxamide] was tested, and the IC50 was > 1 µM.
`CC(Oc1cc(-n2cnc3cc(-c4cnn(C)c4)ccc32)sc1C(N)=O)c1ccnc(OC2CCN(C)CC2)n1` (racemic) [Example 78, (±)-3-[(1-(2-[(1-methyl-4-piperidinyl)oxy]-4-pyrimidinyl}ethyl)oxy]-5-[5-(1-methyl-1H-pyrazol-4-yl)-1H-benzimidazol-1-yl]-2-thiophenecarboxamide] was tested, and the IC50 was > 1 µM.
In the case of `CC(Oc1cc(-n2cnc3cc(-c4cnn(C)c4)ccc32)sc1C(N)=O)c1ccnc(OC2CCNCC2)c1` (racemic) [Example 79, (±)-5-[5-(1-Methyl-1H-pyrazol-4-yl)-1H-benzimidazol-1-yl]-3-({1-[2-(4-piperidinyloxy)-4-pyridinyl]ethyl}oxy)-2-thiophenecarboxamide], the IC50 is reported as > 1 µM.
`CC(Oc1cc(-n2cnc3cc(-c4cnn(C)c4)ccc32)sc1C(N)=O)c1cccc(OC2CCNCC2)n1` (racemic) [Example 81, (±)-5-[5-(1-Methyl-1H-pyrazol-4-yl)-1H-benzimidazol-1-yl]-3-({1-[6-(4-piperidinyloxy)-2-pyridinyl]ethyl}oxy)-2-thiophenecarboxamide] was tested, and the IC50 was > 1 µM.
For `CC(Oc1cc(-n2cnc3cc(-c4cnn(C)c4)ccc32)sc1C(N)=O)c1cccc(OC2CCN(C)CC2)n1` (racemic) [Example 82, (±)-3-[(1-{6-[(1-Methyl-4-piperidinyl)oxy]-2-pyridinyl)ethyl)oxy]-5-[5-(1-methyl-1H-pyrazol-4-yl)-1H-benzimidazol-1-yl]-2-thiophenecarboxamide], the IC50 was > 1 µM.
Work on `COc1cc2ncn(-c3cc(O[C@H](C)c4cccc(NCC5CCNCC5)c4Cl)c(C(N)=O)s3)c2cc1OC` [Example 1] yielded an IC50 of 0.5 to 1 µM.
For `COc1cc2ncn(-c3cc(O[C@H](C)c4cccc(NCC5CCN(C)CC5)c4Cl)c(C(N)=O)s3)c2cc1OC` [Example 2], the IC50 was < 0.5 µM.
`C[C@@H](Oc1cc(-n2cnc3ccc(C#N)cc32)sc1C(N)=O)c1cccc(OC2CCN(C)CC2)c1Cl` [Example 4, 3-((1R)-1-{2-chloro-3-[(1-methylpiperidin-4-yl)oxy]phenyl}-ethoxy)-5-(6-cyano-1H-benzimidazol-1-yl)thiophene-2-carboxamide] was tested, and the IC50 was < 0.5 µM.
`C[C@@H](Oc1cc(-n2cnc3ccc(C#N)cc32)sc1C(N)=O)c1cccc(OC2CCNCC2)c1Cl` [Example 5, 3-{(1R)-1-[2-chloro-3-(piperidin-4-yloxy)phenyl]ethoxy}-5-(6-cyano-1H-benzimidazol-1-yl)thiophene-2-carboxamide] was tested, and the IC50 was < 0.5 µM.
In the case of `C[C@@H](Oc1cc(-n2cnc3ccc(Br)cc32)sc1C(N)=O)c1cccc(OC2CCN(C)CC2)c1Cl` [Example 6, 5-(6-Bromo-1H-benzimidazol-1-yl)-3-[((1R)-1-{2-chloro-3-[(1-methyl-4-piperidinyl)oxy]phenyl}ethyl)oxy]-2-thiophenecarboxamide], the IC50 is reported as < 0.5 µM.
With `C[C@@H](Oc1cc(-n2cnc3ccc(Br)cc32)sc1C(N)=O)c1cccc(OC2CCNCC2)c1Cl` [Example 7, 5-(6-Bromo-1H-benzimidazol-1-yl)-3-({(1R)-1-[2-chloro-3-(4-piperidinyloxy)phenyl]ethyl}oxy)-2-thiophenecarboxamide] the IC50 was < 0.5 µM.
With `C[C@@H](Oc1cc(-n2cnc3cc(Cl)ccc32)sc1C(N)=O)c1cccc(OC2CCNCC2)c1Cl` [Example 8, 5-(5-Chloro-1H-benzimidazol-1-yl)-3-({(1R)-1-[2-chloro-3-(4-piperidinyloxy)phenyl]ethyl}oxy)-2-thiophenecarboxamide] the IC50 was < 0.5 µM.
For `Cc1ccc(-c2ccc3c(c2)ncn3-c2cc(O[C@H](C)c3cccc(OC4CCNCC4)c3Cl)c(C(N)=O)s2)cn1` [Example 9, 3-({(1R)-1-[2-chloro-3-(4-piperidinyloxy)phenyl]ethyl}oxy)-5-[5-(6-methyl-3-pyridinyl)-1H-benzimidazol-1-yl]-2-thiophenecarboxamide], the IC50 was < 0.5 µM.
For `Cc1ccc(-c2ccc3c(c2)ncn3-c2cc(O[C@H](C)c3cccc(OC4CCN(C)CC4)c3Cl)c(C(N)=O)s2)cn1` [Example 10, 3-[((1R)-1-[2-chloro-3-[(1-methyl-4-piperidinyl)oxy]phenyl}ethyl)oxy]-5-[5-(6-methyl-3-pyridinyl)-1H-benzimidazol-1-yl]-2-thiophenecarboxamide], the IC50 was < 0.5 µM.
For `C[C@@H](Oc1cc(-n2cnc3cc(-c4cccnc4)ccc32)sc1C(N)=O)c1cccc(OC2CCN(C)CC2)c1Cl` [Example 11, 3-[((1R)-1-[2-chloro-3-[(1-methyl-4-piperidinyl)oxy]phenyl}ethyl)oxy}-5-[5-(3-pyridinyl)-1H-benzimidazol-1-yl]-2-thiophenecarboxamide], the IC50 was < 0.5 µM.
`C[C@@H](Oc1cc(-n2cnc3cc(-c4cccnc4)ccc32)sc1C(N)=O)c1cccc(OC2CCNCC2)c1Cl` [Example 12, 3-({(1R)-1-[2-chloro-3-(4-piperidinyloxy)phenyl]ethyl}oxy)-5-[5-(3-pyridinyl)-1H-benzimidazol-1-yl]-2-thiophenecarboxamide] was tested, and the IC50 was < 0.5 µM.
`C[C@@H](Oc1cc(-n2cnc3ccccc32)sc1C(N)=O)c1cccc(OC2CCN(C)CC2)c1Cl` [Example 13, 5-(1H-benzimidazol-1-yl)-3-[((1R)-1-{2-chloro-3-[(1-methyl-4-piperidinyl)oxy]phenyl}ethyl)oxy]-2-thiophenecarboxamide] was tested, and the IC50 was < 0.5 µM.
In the case of `C[C@@H](Oc1cc(-n2cnc3ccccc32)sc1C(N)=O)c1cccc(OC2CCNCC2)c1Cl` [Example 14, 5-(1H-Benzimidazol-1-yl)-3-({(1R)-1-[2-chloro-3-(4-piperidinyloxy)phenyl]ethyl}oxy)-2-thiophenecarboxamide], the IC50 is reported as < 0.5 µM.
With `C[C@@H](Oc1cc(-n2cnc3ccccc32)sc1C(N)=O)c1cccc(OCCN2CCOCC2)c1Cl` [Example 15, 5-(1H-benzimidazol-1-yl)-3-{[(1R)-1-(2-chloro-3-{[2-(4-morpholinyl)ethyl]oxy}phenyl)ethyl]oxy)-2-thiophenecarboxamide] the IC50 was < 0.5 µM.
In the case of `C[C@@H](Oc1cc(-n2cnc3ccccc32)sc1C(N)=O)c1cccc(OCCN2CCNCC2)c1Cl` [Example 16, 5-(1H-benzimidazol-1-yl)-3-{[(1R)-1-(2-chloro-3-{[2-(1-piperazinyl)ethyl]oxy}phenyl)ethyl]oxy}-2-thiophenecarboxamide], the IC50 is reported as < 0.5 µM.
`C[C@@H](Oc1cc(-n2cnc3ccccc32)sc1C(N)=O)c1cccc(OCCN2CCN(C)CC2)c1Cl` [Example 17] was tested, and the IC50 was < 0.5 µM.
In the case of `C[C@@H](Oc1cc(-n2cnc3cc(-c4ccc(NC5CCN(C)CC5)nc4)ccc32)sc1C(N)=O)c1cccc(OC2CCN(C)CC2)c1Cl` [Example 18], the IC50 is reported as < 0.5 µM.
`CCN1CCC(Oc2cccc([C@@H](C)Oc3cc(-n4cnc5cc(Cl)ccc54)sc3C(N)=O)c2Cl)CC1` [Example 19, 5-(5-Chloro-1H-benzimidazol-1-yl)-3-[((1R)-1-{2-chloro-3-[(1-ethyl-4-piperidinyl)oxy]phenyl}ethyl)oxy]-2-thiophenecarboxamide] was tested, and the IC50 was < 0.5 µM.
For `C[C@@H](Oc1cc(-n2cnc3cc(Cl)ccc32)sc1C(N)=O)c1cccc(OC2CCN(CCO)CC2)c1Cl` [Example 20, 5-(5-Chloro-1H-benzimidazol-1-yl)-3-{((1R)-1-(2-chloro-3-{[1-(2-hydroxyethyl)-4-piperidinyl]oxy}phenyl)ethyl]oxy}-2-thiophenecarboxamide], the IC50 was < 0.5 µM.
For `C[C@@H](Oc1cc(-n2cnc3cc(Cl)ccc32)sc1C(N)=O)c1cccc(OC2CCN(CCF)CC2)c1Cl` [Example 21, 5-(5-Chloro-1H-benzimidazol-1-yl)-3-{[(1R)-1-(2-chloro-3-{[1-(2-fluoroethyl)-4-piperidinyl]oxy}phenyl)ethyl]oxy}-2-thiophenecarboxamide], the IC50 was < 0.5 µM.
